Among the data in paper PMC11995724, “Antibiotic target discovery by integrated phenotypic and activity-based profiling of electrophilic fragments” (Cell chemical biology, 2025) are viability values, retold here.

The structures appear in SMILES notation.

The nature of this series: in vitro. Conditions: human, hek293t cells.
Take `Cn1cc(C=C(C#N)C(=O)NC2CCCC2)c(-c2ccncc2)n1` [9-L16, 2-cyano-N-cyclopentyl-3-[1-methyl-3-(pyridin-4-yl)-1H-pyrazol-4-yl]prop-2-enamide]: the viability at 48 h, 25 µM came out at 119%. Turning to `O=C(CCl)Nc1ccccc1C(=O)Nc1ccc(Cl)cc1` [4-G10, 2-(2-chloroacetamido)-N-(4-chlorophenyl)benzamide], the viability at 48 h, 25 µM worked out at 0.0501%. On to `CC(Cl)C(=O)N(C)C(C)c1ccccc1N1CCCS1(=O)=O` (stereo not shown) [6-D05, 2-chloro-N-{1-[2-(1,1-dioxo-1lambda6,2-thiazolidin-2-yl)phenyl]ethyl}-N-methylpropanamide], for which the viability at 48 h, 25 µM was determined as 104%. As for `CCN(Cc1ccccc1)C(=O)CCl` [6-O21, N-benzyl-2-chloro-N-ethylacetamide], the viability at 48 h, 25 µM came out at 1.53%. As for `CC(Cl)C(=O)N(Cc1nnc(-c2ccccc2Cl)o1)C1CC1` (stereo not shown) [5-B17, 2-chloro-N-{[5-(2-chlorophenyl)-1,3,4-oxadiazol-2-yl]methyl}-N-cyclopropylpropanamide], the figure is 134%. As for `C=CC(=O)N1CCC(NC(=O)c2oc(C)cc2C)CC1` [2-K17, 3,5-dimethyl-N-[1-(prop-2-enoyl)piperidin-4-yl]furan-2-carboxamide], the figure is 79.7%; as for `C=CC(=O)NCCC(=O)N1CCC(O)(c2c(F)cccc2F)CC1` [2-B11, N-{3-[4-(2,6-difluorophenyl)-4-hydroxypiperidin-1-yl]-3-oxopropyl}prop-2-enamide], 60%; as for `Cc1cc(C)c(CCNC(=O)CCl)c(C)c1` [6-K06, 2-chloro-N-[2-(2,4,6-trimethylphenyl)ethyl]acetamide], 14.3%.

In the case of `CN1C=C(C(F)(F)F)C=CC1=C(C#N)C(=O)Nc1ccccc1F` [8-H20, 2-cyano-N-(2-fluorophenyl)-2-[1-methyl-5-(trifluoromethyl)-1,2-dihydropyridin-2-ylidene]acetamide], the viability at 48 h, 25 µM was determined as 90.1%. In the case of `C=CC(=O)NCC1CCCC1N1CCCS1(=O)=O` (stereo not shown) [3-L13, N-{[2-(1,1-dioxo-1lambda6,2-thiazolidin-2-yl)cyclopentyl]methyl}prop-2-enamide] it was 78.9%; in that of `COc1ccc(C=C(C#N)C(=O)Nc2ccc(Cl)c(Cl)c2)cc1` [8-C03, 2-cyano-N-(3,4-dichlorophenyl)-3-(4-methoxyphenyl)prop-2-enamide], 99.6%. In the case of `O=C(CCl)Nc1nc2c(s1)CCc1ccccc1-2` [6-D03, 2-chloro-N-{4H,5H-naphtho[1,2-d][1,3]thiazol-2-yl}acetamide] it was 0.611%. In the case of `C=CC(=O)N1CCC(S(=O)(=O)NC(C)C)C1` (stereo not shown) [1-D19, 1-(prop-2-enoyl)-N-(propan-2-yl)pyrrolidine-3-sulfonamide] it was 218%. Regarding `O=C1C=CC(=O)N1c1ccccc1F` [10-D17, 1-(2-fluorophenyl)-2,5-dihydro-1H-pyrrole-2,5-dione], the viability at 48 h, 25 µM worked out at 90.3%. As for `N#CC(=Cc1ccc2[nH]c(=O)[nH]c2c1)C(=O)NC1CCCC1` [9-E03, 2-cyano-N-cyclopentyl-3-(2-oxo-2,3-dihydro-1H-1,3-benzodiazol-5-yl)prop-2-enamide], the viability at 48 h, 25 µM came to 121%. As for `C=CC(=O)NCCc1nnc(-c2ccccc2)o1` [3-J09, N-[2-(5-phenyl-1,3,4-oxadiazol-2-yl)ethyl]prop-2-enamide], the figure is 70.8%. As for `C=CC(=O)N(C)CC(=O)N1CCCc2ccccc21` [3-D15, N-methyl-N-[2-oxo-2-(1,2,3,4-tetrahydroquinolin-1-yl)ethyl]prop-2-enamide], the figure is 65.7%. As for `CC(Cl)C(=O)NCc1nc2c(s1)CC(c1ccccc1)CC2` (stereo not shown) [7-A05, 2-chloro-N-[(6-phenyl-4,5,6,7-tetrahydro-1,3-benzothiazol-2-yl)methyl]propanamide], the figure is 57.5%; as for `O=C(CCl)Nc1ccc(Cl)c(S(=O)(=O)N2CCOCC2)c1` [6-K13, 2-chloro-N-[4-chloro-3-(morpholine-4-sulfonyl)phenyl]acetamide], 0.541%; as for `O=C(c1ccccc1)c1cc(Cl)ccc1N1C(=O)C=CC1=O` [10-M16, 1-(2-benzoyl-4-chlorophenyl)-2,5-dihydro-1H-pyrrole-2,5-dione], 48.7%.

As for `C=CC(=O)N1CCC(C(=O)N[C@@H]2C[C@H]2c2ccc(Cl)c(F)c2)CC1` [3-B14, N-[(1R,2S)-2-(4-chloro-3-fluorophenyl)cyclopropyl]-1-(prop-2-enoyl)piperidine-4-carboxamide], the viability at 48 h, 25 µM stood at 78.3%. In the case of `COC(=O)c1ccccc1NC(=O)CCl` [5-B12, methyl 2-(2-chloroacetamido)benzoate] it was 77.7%; in that of `C=CC(=O)NC1CC(C2CCCCC2)C1` (stereo not shown) [1-D10, N-(3-cyclohexylcyclobutyl)prop-2-enamide], 75.7%. As to `COc1ccccc1C1CSCCCN1C(=O)CCl` (stereo not shown) [5-O16, 2-chloro-1-[3-(2-methoxyphenyl)-1,4-thiazepan-4-yl]ethan-1-one], the viability at 48 h, 25 µM was 78.1%. Take `C=CC(=O)NCc1ccc(F)c(F)c1` [1-C10, N-[(3,4-difluorophenyl)methyl]prop-2-enamide]: the viability at 48 h, 25 µM was determined as 49.1%. Regarding `C=CC(=O)N1CCC(Cn2nc(C)cc2C)CC1` [2-C17, 1-{4-[(3,5-dimethyl-1H-pyrazol-1-yl)methyl]piperidin-1-yl}prop-2-en-1-one], the viability at 48 h, 25 µM was found to be 182%. As for `CC(=O)Nc1ccc(NC(=O)N2CCSSCC2)cc1` [10-J11, N-(4-acetamidophenyl)-1,2,5-dithiazepane-5-carboxamide], the figure is 120%; as for `C=CC(=O)N(C)CC(=O)NC1CCCN(c2cc(C)nc(C)n2)C1` (stereo not shown) [3-A12, N-({[1-(2,6-dimethylpyrimidin-4-yl)piperidin-3-yl]carbamoyl}methyl)-N-methylprop-2-enamide], 74.4%; as for `Cc1ccc(C(NC(=O)CCl)c2cccs2)cc1` (stereo not shown) [4-H16, 2-chloro-N-[(4-methylphenyl)(thiophen-2-yl)methyl]acetamide], 0.348%.

Regarding `O=C(CCl)c1c(-c2ccc(F)cc2)[nH]c2ccccc12` [10-P04, 2-chloro-1-[2-(4-fluorophenyl)-1H-indol-3-yl]ethan-1-one], the viability at 48 h, 25 µM came to 4.16%. `C=CC(=O)NCc1cccc(NS(C)(=O)=O)c1` [3-K15, N-[(3-methanesulfonamidophenyl)methyl]prop-2-enamide]: the viability at 48 h, 25 µM worked out at 31.7%. In the case of `CC(Cl)C(=O)Nc1cccnc1Cl` (stereo not shown) [6-C17, 2-chloro-N-(2-chloropyridin-3-yl)propanamide], the viability at 48 h, 25 µM was determined as 106%. Take `C=CC(=O)NCCC(=O)N1CCCC1c1cn(C)nc1C` (stereo not shown) [3-E10, N-{3-[2-(1,3-dimethyl-1H-pyrazol-4-yl)pyrrolidin-1-yl]-3-oxopropyl}prop-2-enamide]: the viability at 48 h, 25 µM worked out at 95.2%. For `CC(Cl)C(=O)N1CCOC(c2ccnc(N(C)C)n2)C1` (stereo not shown) [6-L05, 2-chloro-1-{2-[2-(dimethylamino)pyrimidin-4-yl]morpholin-4-yl}propan-1-one], the viability at 48 h, 25 µM came out at 99.1%. As for `CC(Cl)C(=O)NC1(C(=O)Nc2ccccc2)CC1` (stereo not shown) [7-K14, 1-(2-chloropropanamido)-N-phenylcyclopropane-1-carboxamide], the figure is 52%. As for `Cc1cc(C(=O)CCl)c(C)n1-c1ccc(Cl)c(Cl)c1` [10-D18, 2-chloro-1-[1-(3,4-dichlorophenyl)-2,5-dimethyl-1H-pyrrol-3-yl]ethan-1-one], the figure is 0.282%.

For the compound `C=CC(=O)NCc1cccc2c1OCO2` [1-E07, N-[(1,3-dioxaindan-4-yl)methyl]prop-2-enamide], the viability at 48 h, 25 µM turned out to be 69.1%. As for `C=CC(=O)NCc1conc1C1CCC1` [1-N06, N-[(3-cyclobutyl-1,2-oxazol-4-yl)methyl]prop-2-enamide], the figure is 69.5%; as for `Cc1cccc(C=C(C#N)C(=O)NC(C)c2ccccc2)c1` (stereo not shown) [8-F18, 2-cyano-3-(3-methylphenyl)-N-(1-phenylethyl)prop-2-enamide], 36.3%; as for `CC(Cl)C(=O)N1CC(n2cc(C(N)=O)nn2)C1` (stereo not shown) [5-F21, 1-[1-(2-chloropropanoyl)azetidin-3-yl]-1H-1,2,3-triazole-4-carboxamide], 94.6%.

Turning to `CC(Cl)C(=O)NCC(=O)N(C)Cc1cccnc1` (stereo not shown) [7-P15, 2-chloro-N-({methyl[(pyridin-3-yl)methyl]carbamoyl}methyl)propanamide], the viability at 48 h, 25 µM was found to be 91.3%. As for `COc1ccccc1NC(=O)C(C#N)=Cc1cc(C)c(C)cc1C` [9-A10, 2-cyano-N-(2-methoxyphenyl)-3-(2,4,5-trimethylphenyl)prop-2-enamide], the figure is 115%; as for `CC(Cl)C(=O)Nc1cccc(S(=O)(=O)N(C)C)c1` (stereo not shown) [5-A07, 2-chloro-N-[3-(dimethylsulfamoyl)phenyl]propanamide], 55.5%. As for `O=C(CCl)Cc1cccc(Cl)c1` [10-E17, 1-chloro-3-(3-chlorophenyl)propan-2-one], the figure is 1.29%; as for `CC(C)N(c1ccccc1)c1ccc(NC(=O)CCl)cc1` [6-I17, 2-chloro-N-{4-[phenyl(propan-2-yl)amino]phenyl}acetamide], 0.67%; as for `CN1C(=CC=C(C#N)C(=O)NCC2CCCO2)C(C)(C)c2ccccc21` (stereo not shown) [8-M04, 2-cyano-N-[(oxolan-2-yl)methyl]-4-(1,3,3-trimethyl-2,3-dihydro-1H-indol-2-ylidene)but-2-enamide], 77.7%. With `COc1ccc(-n2c(C)c(C)c(C#N)c2NC(=O)CCl)cc1` [4-F20, 2-chloro-N-[3-cyano-1-(4-methoxyphenyl)-4,5-dimethyl-1H-pyrrol-2-yl]acetamide], the viability at 48 h, 25 µM amounted to 0.583%.

Regarding `C=CC(=O)N1CCOC(CNC(=O)NC)C1` (stereo not shown) [3-A18, 3-methyl-1-{[4-(prop-2-enoyl)morpholin-2-yl]methyl}urea], the viability at 48 h, 25 µM amounted to 93.3%. In the case of `C=CC(=O)NCc1ccsc1S(N)(=O)=O` [2-J15, N-[(2-sulfamoylthiophen-3-yl)methyl]prop-2-enamide] it was 53.1%.
